Data from ChEMBL document CHEMBL5360625, “Design, Synthesis, and Antitumor Activity Evaluation of 2-Arylmethoxy-4-(2,2'-dihalogen-substituted biphenyl-3-ylmethoxy) Benzylamine Derivatives as Potent PD-1/PD-L1 Inhibitors” (J Med Chem, 2023).
Active and inactive are the calls of the source. The calls are words filed in the database; no cut-off is given here.

Legend:
MC-38 [1] = experiment: Antitumor activity against mouse MC38 cells implanted in PD-1/PD-L1 humanized C57/BL6 mouse assessed as increase in CD3 positive CD8 positive T cells proportion in tumor at 50 mg/kg, IG qd administered on day 5 measured after 2 weeks by flow cytometry analysis (reference value: 51.8%); type: functional
[2] = Clearance in Sprague-Dawley rat at 10 mg/kg, ip measured upto 48 hrs by LC-MS/MS analysis; type: ADME, organism-based; details: in vivo
[3] = AUC (0 to infinity) in Sprague-Dawley rat at 10 mg/kg, ip measured upto 48 hrs by LC-MS/MS analysis; type: ADME, organism-based; set-up: time < 48 hrs, dose 10 mg/kg, route ip; details: in vivo
[4] = Tmax in Sprague-Dawley rat at 10 mg/kg, ip measured upto 48 hrs by LC-MS/MS analysis; type: ADME, organism-based; details: in vivo
[5] = Apparent volume of distribution in Sprague-Dawley rat at 10 mg/kg, ip measured upto 48 hrs by LC-MS/MS analysis; type: ADME, organism-based; details: in vivo
[6] = AUC (0 to t) in Sprague-Dawley rat at 10 mg/kg, ip measured upto 48 hrs by LC-MS/MS analysis; type: ADME, organism-based; set-up: time < 48 hrs, dose 10 mg/kg, route ip; details: in vivo
[7] = Nephrotoxicity in PD-1/PD-L1 humanized C57/BL6 mouse implanted with mouse MC38 cells assessed as effect on creatinine level in serum at 50 mg/kg, IG qd administered on day 5 measured after 2 weeks; type: toxicity, organism-based, MC-38; details: in vivo, po, 336 h
[8] = Toxicity in PD-1/PD-L1 humanized C57/BL6 mouse implanted with mouse MC38 cells assessed as morphological change in spleen at 50 mg/kg, IG qd administered on day 5 measured after 2 weeks by hematoxylin-eosin staining based inverted fluorescent microscopic analysis; type: organism-based, MC-38; details: in vivo, po, 336 h
[9] = Nephrotoxicity in PD-1/PD-L1 humanized C57/BL6 mouse implanted with mouse MC38 cells assessed as effect on urea level in serum at 50 mg/kg, IG qd administered on day 5 measured after 2 weeks; type: toxicity, organism-based, MC-38; details: in vivo, po, 336 h
[10] = Toxicity in PD-1/PD-L1 humanized C57/BL6 mouse implanted with mouse MC38 cells assessed as morphological change in lung at 50 mg/kg, IG qd administered on day 5 measured after 2 weeks by hematoxylin-eosin staining based inverted fluorescent microscopic analysis; type: organism-based, MC-38; details: in vivo, po, 336 h
[11] = Tmax in Sprague-Dawley rat at 8 mg/kg, iv measured upto 48 hrs by LC-MS/MS analysis; type: ADME, organism-based; details: in vivo
[12] = molecular target: Programmed cell death protein 1/Programmed cell death 1 ligand 1 (Homo sapiens, UniProt Q9NZQ7); experiment: Inhibition of PD-1/PD-L1 interaction (unknown origin) incubated for 1 hr by HTRF assay; type: protein-complex assay
MC-38 [13] = experiment: Antitumor activity against mouse MC38 cells implanted in PD-1/PD-L1 humanized C57/BL6 mouse assessed as tumor growth inhibition at 50 mg/kg, IG qd administered on day 5 measured after 2 weeks; type: functional; details: MC-38, po, 336 h, read-out: TGI
[14] = Cmax in Sprague-Dawley rat at 8 mg/kg, iv measured upto 48 hrs by LC-MS/MS analysis; type: ADME, organism-based; set-up: time < 48 hrs, dose 8 mg/kg, route iv; details: in vivo
[15] = AUC (0 to t) in Sprague-Dawley rat at 40 mg/kg, IG measured upto 48 hrs by LC-MS/MS analysis; type: ADME, organism-based; set-up: dose 40 mg/kg, time < 48 hrs, route ig; details: in vivo, po
[16] = Clearance in Sprague-Dawley rat at 8 mg/kg, iv measured upto 48 hrs by LC-MS/MS analysis; type: ADME, organism-based; details: Sprague-Dawley, in vivo
MC-38 [17] = experiment: Immunomodulatory activity in mouse MC38 cells implanted in PD-1/PD-L1 humanized C57/BL6 mouse assessed as decrease in PD-L1 mRNA expression level in tumor at 50 mg/kg, IG qd administered on day 5 measured after 2 weeks by RT-PCR analysis; type: functional, organism-based
[18] = Apparent volume of distribution in Sprague-Dawley rat at 8 mg/kg, iv measured upto 48 hrs by LC-MS/MS analysis; type: ADME, organism-based; details: Sprague-Dawley, in vivo, read-out: Vz

Chain of Programmed cell death protein 1/Programmed cell death 1 ligand 1 (Q15116 whole entry): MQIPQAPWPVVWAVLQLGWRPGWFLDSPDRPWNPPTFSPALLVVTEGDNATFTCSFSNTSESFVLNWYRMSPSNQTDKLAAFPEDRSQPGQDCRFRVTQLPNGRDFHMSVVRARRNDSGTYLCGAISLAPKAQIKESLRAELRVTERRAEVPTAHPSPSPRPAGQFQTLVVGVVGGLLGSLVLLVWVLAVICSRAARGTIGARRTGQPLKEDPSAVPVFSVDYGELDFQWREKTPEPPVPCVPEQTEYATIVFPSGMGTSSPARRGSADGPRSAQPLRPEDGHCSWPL
Chain of Programmed cell death protein 1/Programmed cell death 1 ligand 1 (Q9NZQ7 whole entry): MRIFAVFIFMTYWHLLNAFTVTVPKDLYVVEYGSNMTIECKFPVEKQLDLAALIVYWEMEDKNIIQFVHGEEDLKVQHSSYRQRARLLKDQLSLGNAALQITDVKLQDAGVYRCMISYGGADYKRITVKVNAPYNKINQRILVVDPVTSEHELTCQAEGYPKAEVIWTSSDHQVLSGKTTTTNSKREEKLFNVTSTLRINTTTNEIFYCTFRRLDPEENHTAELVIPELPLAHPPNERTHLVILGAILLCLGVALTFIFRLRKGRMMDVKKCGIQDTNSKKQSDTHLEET

`N#Cc1cncc(COc2cc(OCc3cccc(-c4ccccc4F)c3Cl)ccc2CNCCO)c1` showed an Activity (MC-38 [1]) of 67.4%, a CL/F [2] of 20.2 mL/min/kg and an AUC(0-inf) [3] of 10500 ng·h/mL. For the same compound, the Tmax [4] was 52.8 min, the Vz [5] was 2.94 L/kg and the AUC(0-t) at 48 h [6] was 9730 ng·h/mL. The Activity [7] was “Non-Toxic”, the Activity [8] was “Non-Toxic” and the Activity [9] was “Non-Toxic”. For the same compound, the Activity [10] was “Non-Toxic”, the Tmax [11] was 4.8 min and the IC50 [12] was 24 µM. The inhibition in vivo at 50 mg/kg (MC-38 [13]) was 55.2%, the Cmax [14] was 6230 ng/mL and the AUC(0-t) at 48 h [15] was 63600 ng·h/mL. For the same compound, the clearance [16] was 10 mL/min/kg, the Activity (MC-38 [17]) was “Active” and the Vd [18] was 1.09 L/kg.
